System: S. aureus ATCC 6538
Assay: quantitative suspension assay of mono-substances
Format: cell-based, Staphylococcus aureus
Experimental: A stock solution was prepared by adding 0.1 ml methanol to 10.48 mg of hydroxytyrosol. After dissolving of the compound, the solution was quantitatively transferred into 4.9 ml water for injection (WFI), effective concentration of hydroxytyrosol: 2.0 mg/ml.
Using the stock solution, five (5) concentrations of hydroxytyrosol in a geometric series of 2 mg hydroxytyrosol/ml to 0.125 mg hydroxytyrosol/ml were tested in a quantitative suspension assay.
2 ml of the stock solution and the dilutions (V1 to V4), respectively, and a methanol-solution of 2% as a positive control were inoculated with 0.1 ml of a test suspension of S. aureus ATCC 6538, adjusted to about 2.0×10^5 CFU/0.1 ml, resulting in about 100,000 CFU/ml in the individual assays.
Samples (0.1 ml) were then taken at t 0, 12, 30, and 60 minutes as well as t 24 48, and 72 hours after inoculation and culturing at between 20-25° C., and were diluted with 0.9 ml of 0.9% NaCl solution. The samples were plated on blood agar plates, and incubated up to 5 days at between 30-35° C.
A stock solution was prepared at a concentration of 2 mg/ml of oleocanthal. The compound was dissolved by in ethanol (99.8%) and WFI was added.
Using the stock solution, concentrations of oleocanthal in a geometric series of 1 mg oleocanthal/ml to 0.125 mg oleocanthal/ml were tested in a quantitative suspension assay.
2 ml of the stock solution and the dilutions (V1 to V4), respectively, and a ethanol-solution of 2.85% as a positive control were inoculated with 0.055 ml of a test suspension of S. aureus ATCC 6538, adjusted to about 3.6×10^5 CFU/0.1 ml, resulting in about 99,000 CFU/ml in the individual assays.
A stock solution was prepared at a concentration of 1 mg/ml of oleacin. The compound was dissolved by in ethanol (99.8%) and WFI was added.
Using the stock solution, concentrations of oleacin at 0.25 mg oleacin/ml and 0.125 mg oleacin/ml were tested in a quantitative suspension assay.
2 ml of the stock solution and the dilutions (V1 and V2), respectively, and a ethanol-solution of 0.44% as a positive control were inoculated with 0.055 ml of a test suspension of S. aureus ATCC 6538, adjusted to about 3.5×10^5 CFU/0.1 ml, resulting in about 99,000 CFU/ml in the individual assays.
A stock solution was prepared by adding 0.1 ml chloroform to 25 mg of uvaol. After dissolving of the compound, the solution was quantitatively transferred into 12.4 ml water for injection (WFI), effective concentration of uvaol: 2.0 mg/ml.
Using the stock solution, five (5) concentrations of uvaol in a geometric series of 2 mg uvaol/ml to 0.125 mg uvaol/ml were tested in a quantitative suspension assay.
2 ml of the stock solution and the dilutions (V1 to V4), respectively, and a chloroform-solution of 0.8% as a positive control were inoculated with 0.1 ml of a test suspension of S. aureus ATCC 6538, adjusted to about 2.0×10^5 CFU/0.1 ml, resulting in about 100,000 CFU/ml in the individual assays.
A stock solution was prepared by adding 0.1 ml chloroform to 10.45 mg of erythrodiol. After dissolving of the compound, the solution was quantitatively transferred into 4.9 ml water for injection (WFI), effective concentration of erythrodiol: 2.0 mg/ml.
2 ml of the stock solution and the dilutions (V1 to V4), respectively, and a chloroform-solution of 2% as a positive control were inoculated with 0.1 ml of a test suspension of S. aureus ATCC 6538, adjusted to about 3.6×10^5 CFU/0.1 ml, resulting in about 100.000 CFU/ml in the individual assays.

OCCc1ccc(O)c(O)c1 [Hydroxytyrosol]
Number of CFUs (0.125 Hyd/ml, t 0 min, initial cell load 1.7 × 10^5 CFU/ml): 7.0 × 10^4 CFU/ml | Number of CFUs (0.125 Hyd/ml, t 12 min, initial cell load 1.7 × 10^5 CFU/ml): 7.4 × 10^4 CFU/ml | Number of CFUs (0.125 Hyd/ml, t 30 min, initial cell load 1.7 × 10^5 CFU/ml): 7.0 × 10^4 CFU/ml | Number of CFUs (0.125 Hyd/ml, t 60 min, initial cell load 1.7 × 10^5 CFU/ml): 6.8 × 10^4 CFU/ml | Number of CFUs (0.125 Hyd/ml, t 24 h, initial cell load 1.7 × 10^5 CFU/ml): 2.8 × 10^3 CFU/ml | Number of CFUs (0.125 Hyd/ml, t 48 h, initial cell load 1.7 × 10^5 CFU/ml): <100 CFU/ml | Number of CFUs (0.125 Hyd/ml, t 72 h, initial cell load 1.7 × 10^5 CFU/ml): 7.1 × 10^2 CFU/ml | Number of CFUs (0.25 Hyd/ml, t 0 min, initial cell load 1.7 × 10^5 CFU/ml): 5.7 × 10^4 CFU/ml | Number of CFUs (0.25 Hyd/ml, t 12 min, initial cell load 1.7 × 10^5 CFU/ml): 5.1 × 10^4 CFU/ml | Number of CFUs (0.25 Hyd/ml, t 30 min, initial cell load 1.7 × 10^5 CFU/ml): 5.9 × 10^4 CFU/ml | Number of CFUs (0.25 Hyd/ml, t 60 min, initial cell load 1.7 × 10^5 CFU/ml): 7.4 × 10^4 CFU/ml | Number of CFUs (0.25 Hyd/ml, t 24 h, initial cell load 1.7 × 10^5 CFU/ml): 1.4 × 10^3 CFU/ml | Number of CFUs (0.25 Hyd/ml, t 48 h, initial cell load 1.7 × 10^5 CFU/ml): <100 CFU/ml | Number of CFUs (0.25 Hyd/ml, t 72 h, initial cell load 1.7 × 10^5 CFU/ml): <100 CFU/ml | Number of CFUs (0.5 Hyd/ml, t 0 min, initial cell load 1.7 × 10^5 CFU/ml): 7.0 × 10^4 CFU/ml | Number of CFUs (0.5 Hyd/ml, t 12 min, initial cell load 1.7 × 10^5 CFU/ml): 6.6 × 10^4 CFU/ml | Number of CFUs (0.5 Hyd/ml, t 30 min, initial cell load 1.7 × 10^5 CFU/ml): 6.4 × 10^4 CFU/ml | Number of CFUs (0.5 Hyd/ml, t 60 min, initial cell load 1.7 × 10^5 CFU/ml): 6.1 × 10^4 CFU/ml | Number of CFUs (0.5 Hyd/ml, t 24 h, initial cell load 1.7 × 10^5 CFU/ml): 2.0 × 10^2 CFU/ml | Number of CFUs (0.5 Hyd/ml, t 48 h, initial cell load 1.7 × 10^5 CFU/ml): <100 CFU/ml | Number of CFUs (0.5 Hyd/ml, t 72 h, initial cell load 1.7 × 10^5 CFU/ml): <100 CFU/ml | Number of CFUs (1.0 Hyd/ml, t 0 min, initial cell load 1.7 × 10^5 CFU/ml): 6.8 × 10^4 CFU/ml | Number of CFUs (1.0 Hyd/ml, t 12 min, initial cell load 1.7 × 10^5 CFU/ml): 7.8 × 10^4 CFU/ml | Number of CFUs (1.0 Hyd/ml, t 30 min, initial cell load 1.7 × 10^5 CFU/ml): 7.4 × 10^4 CFU/ml | Number of CFUs (1.0 Hyd/ml, t 60 min, initial cell load 1.7 × 10^5 CFU/ml): 7.2 × 10^4 CFU/ml | Number of CFUs (1.0 Hyd/ml, t 24 h, initial cell load 1.7 × 10^5 CFU/ml): <100 CFU/ml | Number of CFUs (1.0 Hyd/ml, t 48 h, initial cell load 1.7 × 10^5 CFU/ml): <100 CFU/ml | Number of CFUs (1.0 Hyd/ml, t 72 h, initial cell load 1.7 × 10^5 CFU/ml): <100 CFU/ml | Number of CFUs (2.0 Hyd/ml, t 0 min, initial cell load 1.7 × 10^5 CFU/ml): 7.0 × 10^4 CFU/ml | Number of CFUs (2.0 Hyd/ml, t 12 min, initial cell load 1.7 × 10^5 CFU/ml): 8.9 × 10^4 CFU/ml | Number of CFUs (2.0 Hyd/ml, t 30 min, initial cell load 1.7 × 10^5 CFU/ml): 5.9 × 10^4 CFU/ml | Number of CFUs (2.0 Hyd/ml, t 60 min, initial cell load 1.7 × 10^5 CFU/ml): 5.9 × 10^4 CFU/ml | Number of CFUs (2.0 Hyd/ml, t 24 h, initial cell load 1.7 × 10^5 CFU/ml): <100 CFU/ml | Number of CFUs (2.0 Hyd/ml, t 48 h, initial cell load 1.7 × 10^5 CFU/ml): <100 CFU/ml | Number of CFUs (2.0 Hyd/ml, t 72 h, initial cell load 1.7 × 10^5 CFU/ml): <100 CFU/ml

C[C@H]1[C@H](C)CC[C@]2(CO)CC[C@]3(C)C(=CC[C@@H]4[C@@]5(C)CC[C@H](O)C(C)(C)[C@@H]5CC[C@]43C)[C@H]12 [uvaol]
Number of CFUs (0.125 Uva/ml, t 0 min, initial cell load 2.0 × 10^5 CFU/ml): 6.3 × 10^4 CFU/ml | Number of CFUs (0.125 Uva/ml, t 12 min, initial cell load 2.0 × 10^5 CFU/ml): 5.7 × 10^4 CFU/ml | Number of CFUs (0.125 Uva/ml, t 30 min, initial cell load 2.0 × 10^5 CFU/ml): 7.6 × 10^4 CFU/ml | Number of CFUs (0.125 Uva/ml, t 60 min, initial cell load 2.0 × 10^5 CFU/ml): 6.6 × 10^4 CFU/ml | Number of CFUs (0.125 Uva/ml, t 24 h, initial cell load 2.0 × 10^5 CFU/ml): 4.7 × 10^3 CFU/ml | Number of CFUs (0.125 Uva/ml, t 48 h, initial cell load 2.0 × 10^5 CFU/ml): 4.2 × 10^3 CFU/ml | Number of CFUs (0.125 Uva/ml, t 72 h, initial cell load 2.0 × 10^5 CFU/ml): 8.2 × 10^2 CFU/ml | Number of CFUs (0.25 Uva/ml, t 0 min, initial cell load 2.0 × 10^5 CFU/ml): 5.3 × 10^4 CFU/ml | Number of CFUs (0.25 Uva/ml, t 12 min, initial cell load 2.0 × 10^5 CFU/ml): 8.1 × 10^4 CFU/ml | Number of CFUs (0.25 Uva/ml, t 30 min, initial cell load 2.0 × 10^5 CFU/ml): 5.3 × 10^4 CFU/ml | Number of CFUs (0.25 Uva/ml, t 60 min, initial cell load 2.0 × 10^5 CFU/ml): 5.7 × 10^4 CFU/ml | Number of CFUs (0.25 Uva/ml, t 24 h, initial cell load 2.0 × 10^5 CFU/ml): <100 CFU/ml | Number of CFUs (0.25 Uva/ml, t 48 h, initial cell load 2.0 × 10^5 CFU/ml): <100 CFU/ml | Number of CFUs (0.25 Uva/ml, t 72 h, initial cell load 2.0 × 10^5 CFU/ml): <100 CFU/ml | Number of CFUs (0.5 Uva/ml, t 0 min, initial cell load 2.0 × 10^5 CFU/ml): 7.0 × 10^4 CFU/ml | Number of CFUs (0.5 Uva/ml, t 12 min, initial cell load 2.0 × 10^5 CFU/ml): 7.8 × 10^4 CFU/ml | Number of CFUs (0.5 Uva/ml, t 30 min, initial cell load 2.0 × 10^5 CFU/ml): 7.6 × 10^4 CFU/ml | Number of CFUs (0.5 Uva/ml, t 60 min, initial cell load 2.0 × 10^5 CFU/ml): 5.7 × 10^4 CFU/ml | Number of CFUs (0.5 Uva/ml, t 24 h, initial cell load 2.0 × 10^5 CFU/ml): <100 CFU/ml | Number of CFUs (0.5 Uva/ml, t 48 h, initial cell load 2.0 × 10^5 CFU/ml): <100 CFU/ml | Number of CFUs (0.5 Uva/ml, t 72 h, initial cell load 2.0 × 10^5 CFU/ml): <100 CFU/ml | Number of CFUs (1.0 Uva/ml, t 0 min, initial cell load 2.0 × 10^5 CFU/ml): 7.8 × 10^4 CFU/ml | Number of CFUs (1.0 Uva/ml, t 12 min, initial cell load 2.0 × 10^5 CFU/ml): 7.8 × 10^4 CFU/ml | Number of CFUs (1.0 Uva/ml, t 30 min, initial cell load 2.0 × 10^5 CFU/ml): 7.4 × 10^4 CFU/ml | Number of CFUs (1.0 Uva/ml, t 60 min, initial cell load 2.0 × 10^5 CFU/ml): 5.9 × 10^4 CFU/ml | Number of CFUs (1.0 Uva/ml, t 24 h, initial cell load 2.0 × 10^5 CFU/ml): <100 CFU/ml | Number of CFUs (1.0 Uva/ml, t 48 h, initial cell load 2.0 × 10^5 CFU/ml): <100 CFU/ml | Number of CFUs (1.0 Uva/ml, t 72 h, initial cell load 2.0 × 10^5 CFU/ml): <100 CFU/ml | Number of CFUs (2.0 Uva/ml, t 0 min, initial cell load 2.0 × 10^5 CFU/ml): 7.2 × 10^4 CFU/ml | Number of CFUs (2.0 Uva/ml, t 12 min, initial cell load 2.0 × 10^5 CFU/ml): 5.9 × 10^4 CFU/ml | Number of CFUs (2.0 Uva/ml, t 30 min, initial cell load 2.0 × 10^5 CFU/ml): 7.0 × 10^4 CFU/ml | Number of CFUs (2.0 Uva/ml, t 60 min, initial cell load 2.0 × 10^5 CFU/ml): 7.0 × 10^4 CFU/ml | Number of CFUs (2.0 Uva/ml, t 24 h, initial cell load 2.0 × 10^5 CFU/ml): <100 CFU/ml | Number of CFUs (2.0 Uva/ml, t 48 h, initial cell load 2.0 × 10^5 CFU/ml): <100 CFU/ml | Number of CFUs (2.0 Uva/ml, t 72 h, initial cell load 2.0 × 10^5 CFU/ml): <100 CFU/ml

Source: patent US20220395549A1, “COMPOSITIONS OF THE OLEA EUROPAEA V. SYLVESTRIS WITH ANTIMICROBIAL EFFICACY” (TAPROGGE GMBH, priority 2019, published 2022)
